# Results published in PubChem BioAssay (NCI).
#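 Five concentrations, 48 hours, 96-well plates. The concentration for 50% growth inhibition is given as GI50. The concentration for full growth arrest is given as TGI.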
# Key:
# Test in all cases: NCI tumour cell line growth inhibition, 48 h
# [1] = system: 786-0 renal
# [2] = system: A498 renal
# [3] = system: A549 NSCLC
# [4] = system: ACHN renal
# [5] = system: BT-549 breast
# [6] = system: CAKI-1 renal
# [7] = system: CCRF-CEM leukemia
# [8] = system: COLO 205 colon
# [9] = system: DU-145 prostate
# [10] = system: HCC-2998 colon
# [11] = system: HCT-116 colon
# [12] = system: HCT-15 colon
# [13] = system: HL-60(TB) leukemia
# [14] = system: HOP-62 NSCLC
# [15] = system: HS 578T breast
# [16] = system: HT29 colon
# [17] = system: IGROV1 ovarian
# [18] = system: K-562 leukemia
# [19] = system: KM12 colon
# [20] = system: LOX IMVI melanoma
# [21] = system: M14 melanoma
# [22] = system: MALME-3M melanoma
# [23] = system: MCF7 breast
# [24] = system: MDA-MB-231 breast
# [25] = system: MDA-MB-435
# [26] = system: MOLT-4 leukemia
# [27] = system: NCI-H226 lung
# [28] = system: NCI-H23 lung
smiles,measurement,setting,value
CN=c1ccc2nc3ccc(N)cc3sc-2c1,GI50,[1],10.5 µM
same,TGI,[1],25.9 µM
same,GI50,[2],79.5 µM
same,TGI,[2],> 100 µM
same,GI50,[3],0.714 µM
same,TGI,[3],13.3 µM
same,GI50,[4],2.25 µM
same,TGI,[4],17.4 µM
same,GI50,[5],11.5 µM
same,TGI,[5],44.4 µM
same,GI50,[6],2.36 µM
same,TGI,[6],12.4 µM
same,GI50,[7],0.584 µM
same,TGI,[7],17.9 µM
same,GI50,[8],2.57 µM
same,TGI,[8],12.2 µM
same,GI50,[9],10.7 µM
same,TGI,[9],23.5 µM
same,GI50,[10],4.32 µM
same,TGI,[10],38.6 µM
same,GI50,[11],1.29 µM
same,TGI,[11],10.3 µM
same,GI50,[12],1.62 µM
same,TGI,[12],68 µM
same,GI50,[13],0.354 µM
same,TGI,[13],1.67 µM
same,GI50,[14],6.8 µM
same,TGI,[14],27.3 µM
same,GI50,[15],17 µM
same,TGI,[15],59.6 µM
same,GI50,[16],8.44 µM
same,TGI,[16],34.3 µM
same,GI50,[17],2.54 µM
same,TGI,[17],6.24 µM
same,GI50,[18],1.12 µM
same,TGI,[18],16.7 µM
same,GI50,[19],2.07 µM
same,TGI,[19],20.1 µM
same,GI50,[20],1.87 µM
same,TGI,[20],9.58 µM
same,GI50,[21],2.04 µM
same,TGI,[21],10.8 µM
same,GI50,[22],1.09 µM
same,TGI,[22],3.45 µM
same,GI50,[23],1.63 µM
same,TGI,[23],6.5 µM
same,GI50,[24],0.7 µM
same,TGI,[24],14.3 µM
same,GI50,[25],1.42 µM
same,TGI,[25],3.24 µM
same,GI50,[26],1.77 µM
same,TGI,[26],6.86 µM
same,GI50,[27],15.2 µM
same,TGI,[27],41.4 µM
same,GI50,[28],1.83 µM
